The target of assay [1] is Casein kinase II subunit alpha' (Homo sapiens) (UniProt P19784). In words: Selectivity interaction (Kinase panel (DSF assay)) EUB0001558a CSNK2A2.
Assay [2] concerns the target Tyrosine-protein kinase Srms (Homo sapiens) (UniProt Q9H3Y6). Put plainly: Selectivity interaction (Ambit KINOMEscan and KiNATiv profiling in Jurkat cells) EUB0000090b SRMS. The conditions noted are these: at 1 µM. It counts as cell-based.
The target of assay [3] is Calcium/calmodulin-dependent protein kinase type 1 (Homo sapiens) (UniProt Q14012). Put plainly: Selectivity interaction (KinomeScan (DiscoverX)) EUB0001079a CAMK1. The following applies: at 1 µM.
Calcium/calmodulin-dependent protein kinase type 1 (Homo sapiens), sequence (Q14012 whole entry, looked up): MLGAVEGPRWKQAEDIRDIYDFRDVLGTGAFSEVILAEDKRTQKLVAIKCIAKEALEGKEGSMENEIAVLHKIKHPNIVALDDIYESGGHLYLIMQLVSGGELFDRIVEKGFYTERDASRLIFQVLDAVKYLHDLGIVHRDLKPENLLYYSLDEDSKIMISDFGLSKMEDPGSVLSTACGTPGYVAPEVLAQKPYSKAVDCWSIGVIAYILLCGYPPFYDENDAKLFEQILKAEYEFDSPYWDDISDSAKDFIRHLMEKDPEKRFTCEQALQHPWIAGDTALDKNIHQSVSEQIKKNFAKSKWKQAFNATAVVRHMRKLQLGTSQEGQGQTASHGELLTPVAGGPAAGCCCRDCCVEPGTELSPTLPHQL
Assay [4] concerns the target T1, Ephrin type-B receptor 1 (Homo sapiens) (UniProt P54762).
T1 sequence (whole entry): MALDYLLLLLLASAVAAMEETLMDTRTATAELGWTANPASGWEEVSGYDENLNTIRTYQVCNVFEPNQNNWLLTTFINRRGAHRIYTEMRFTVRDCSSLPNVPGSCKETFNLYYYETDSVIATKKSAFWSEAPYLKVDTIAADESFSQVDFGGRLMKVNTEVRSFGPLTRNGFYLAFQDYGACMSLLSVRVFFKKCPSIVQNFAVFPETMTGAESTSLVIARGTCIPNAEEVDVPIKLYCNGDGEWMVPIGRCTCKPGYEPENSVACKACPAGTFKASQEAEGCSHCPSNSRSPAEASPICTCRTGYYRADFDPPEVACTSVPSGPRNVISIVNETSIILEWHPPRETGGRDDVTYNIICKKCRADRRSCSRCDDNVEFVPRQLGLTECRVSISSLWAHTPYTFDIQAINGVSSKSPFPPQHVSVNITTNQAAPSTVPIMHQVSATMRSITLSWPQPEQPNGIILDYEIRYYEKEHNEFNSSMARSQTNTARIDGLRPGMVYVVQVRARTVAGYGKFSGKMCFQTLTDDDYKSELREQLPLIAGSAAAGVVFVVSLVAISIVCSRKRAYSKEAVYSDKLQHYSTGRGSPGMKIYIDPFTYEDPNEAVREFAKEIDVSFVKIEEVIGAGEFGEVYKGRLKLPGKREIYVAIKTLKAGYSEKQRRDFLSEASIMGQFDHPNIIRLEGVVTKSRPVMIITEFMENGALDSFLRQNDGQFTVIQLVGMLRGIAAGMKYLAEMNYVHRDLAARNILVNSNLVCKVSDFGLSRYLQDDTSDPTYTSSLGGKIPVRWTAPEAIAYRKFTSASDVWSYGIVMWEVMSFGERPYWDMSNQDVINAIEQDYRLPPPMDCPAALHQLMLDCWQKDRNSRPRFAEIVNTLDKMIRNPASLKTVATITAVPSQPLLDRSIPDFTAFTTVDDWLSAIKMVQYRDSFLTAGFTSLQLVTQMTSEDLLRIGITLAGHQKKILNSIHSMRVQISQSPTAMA
In words: Selectivity interaction (KinomeScan (DiscoverX)) EUB0000045b EPHB1.

Assay [5] deals with T2, cAMP-dependent protein kinase catalytic subunit PRKX (Homo sapiens) (UniProt P51817).
T2 sequence (whole entry): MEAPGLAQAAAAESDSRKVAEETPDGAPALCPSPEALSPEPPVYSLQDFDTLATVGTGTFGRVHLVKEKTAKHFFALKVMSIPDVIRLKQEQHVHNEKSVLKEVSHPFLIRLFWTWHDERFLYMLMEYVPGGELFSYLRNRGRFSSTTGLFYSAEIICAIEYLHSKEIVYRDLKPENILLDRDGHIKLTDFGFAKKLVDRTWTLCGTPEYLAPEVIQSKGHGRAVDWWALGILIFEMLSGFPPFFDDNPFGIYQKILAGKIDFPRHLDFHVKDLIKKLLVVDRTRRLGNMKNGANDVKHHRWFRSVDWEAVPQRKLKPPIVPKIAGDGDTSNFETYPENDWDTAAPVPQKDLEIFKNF
In words: Selectivity interaction (KinomeScan (DiscoverX)) EUB0000229b PRKX. The conditions noted are these: at 10 µM.

Assay [6] concerns the target T3, Tyrosine-protein kinase ZAP-70 (Homo sapiens, UniProt P43403).
T3 sequence (P43403 whole entry): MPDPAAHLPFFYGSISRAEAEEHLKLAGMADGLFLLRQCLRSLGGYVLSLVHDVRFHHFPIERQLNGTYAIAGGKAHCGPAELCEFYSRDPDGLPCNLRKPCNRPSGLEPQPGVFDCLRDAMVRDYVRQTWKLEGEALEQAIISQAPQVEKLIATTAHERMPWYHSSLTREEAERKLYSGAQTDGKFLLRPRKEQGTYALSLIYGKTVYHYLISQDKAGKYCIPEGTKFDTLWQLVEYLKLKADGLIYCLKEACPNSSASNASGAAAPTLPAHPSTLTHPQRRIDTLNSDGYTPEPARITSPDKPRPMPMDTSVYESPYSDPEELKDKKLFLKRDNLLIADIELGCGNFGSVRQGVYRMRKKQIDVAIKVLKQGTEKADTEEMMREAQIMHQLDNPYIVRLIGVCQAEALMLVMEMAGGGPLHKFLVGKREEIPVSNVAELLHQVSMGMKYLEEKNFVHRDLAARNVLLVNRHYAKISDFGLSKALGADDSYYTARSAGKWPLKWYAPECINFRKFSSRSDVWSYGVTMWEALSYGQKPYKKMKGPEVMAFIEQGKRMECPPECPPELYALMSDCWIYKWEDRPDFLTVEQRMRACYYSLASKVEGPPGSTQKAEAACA
Put plainly: Selectivity interaction (Kinase panel (33PanQinase(R) Activity Assay)) EUB0000877a ZAP70.

A value given as a limit tells only on which side of the number the result lay.

For orientation: IC50 means the midpoint of a concentration-inhibition curve. Read a low IC50 as higher potency.

Tyrosine-protein kinase Srms (Homo sapiens), sequence (Q9H3Y6 whole entry): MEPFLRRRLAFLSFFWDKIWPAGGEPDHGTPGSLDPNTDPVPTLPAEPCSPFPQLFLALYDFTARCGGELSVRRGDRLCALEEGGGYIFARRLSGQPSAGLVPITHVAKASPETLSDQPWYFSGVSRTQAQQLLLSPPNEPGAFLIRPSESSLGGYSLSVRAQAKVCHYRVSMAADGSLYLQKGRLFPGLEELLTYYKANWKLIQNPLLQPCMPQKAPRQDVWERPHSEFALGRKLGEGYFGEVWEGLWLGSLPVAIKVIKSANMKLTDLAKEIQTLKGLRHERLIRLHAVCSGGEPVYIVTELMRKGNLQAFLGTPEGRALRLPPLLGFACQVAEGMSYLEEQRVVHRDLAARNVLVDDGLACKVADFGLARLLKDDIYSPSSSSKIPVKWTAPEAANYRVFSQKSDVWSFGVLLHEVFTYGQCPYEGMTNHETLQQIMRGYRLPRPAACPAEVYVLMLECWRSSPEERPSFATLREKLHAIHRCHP
Casein kinase II subunit alpha' (Homo sapiens), sequence (P19784 whole entry, looked up): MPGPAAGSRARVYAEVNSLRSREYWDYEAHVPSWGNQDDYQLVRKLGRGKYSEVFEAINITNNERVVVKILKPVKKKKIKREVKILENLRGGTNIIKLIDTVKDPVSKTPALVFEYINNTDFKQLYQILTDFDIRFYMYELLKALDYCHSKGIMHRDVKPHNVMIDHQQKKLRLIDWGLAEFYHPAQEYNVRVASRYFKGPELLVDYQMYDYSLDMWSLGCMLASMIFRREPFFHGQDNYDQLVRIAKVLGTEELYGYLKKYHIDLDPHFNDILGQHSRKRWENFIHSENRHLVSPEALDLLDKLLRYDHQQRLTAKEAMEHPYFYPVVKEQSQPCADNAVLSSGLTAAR

Take `CC(C)(O)[C@H](F)CN1Cc2cc(NC(=O)c3cnn4cccnc34)c(N3CCOCC3)cc2C1=O`: in assay [1], the dTM came to 0.1 K.

Consider `CN(C)C/C=C/C(=O)Nc1ccc(C(=O)N2CCCC(Nc3ncc(Cl)c(-c4c[nH]c5ccccc45)n3)C2)cc1` (configuration not stated), for which the % of control in assay [2] was 99%.

As to `Nc1cnc(N2CCc3cc(S(=O)(=O)Nc4c(F)cc(Cl)cc4F)cc(N4CCCC4=O)c32)nc1` [TP-020n], in assay [3], the % of control is 88%.

`C=CC(=O)Nc1cc(-n2c(=O)ccc3cnc4ccc(-c5ccc(NS(C)(=O)=O)cc5)cc4c32)ccc1C`: the % of control in assay [4] (at 1 µM) and in assay [4] (at 10 µM) was 100% throughout.

`COc1cc(N(C)c2ccnc3ccc(C(F)(F)F)cc23)cc(OC)c1OC` showed a % binding in assay [5] of 72%.

Take `CCC(=O)N1CC[C@H](Nc2ncnc3c2CN(c2cnc(OC)c(C(F)(F)F)c2)CC3)C1` [LENIOLISIB]: the IC50 in assay [6] was greater than 10 µM.

Source of the values: ChEMBL document CHEMBL5465560, “Selectivity Literature for EUbOPEN Chemogenomic Library” (2024).
